Results taken from ChEMBL document CHEMBL1201862, “PubChem BioAssay data set” (2004).
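Grown in 96-well plates, cells were treated for 48 hours with each compound at five concentrations. Insufficient inhibition: endpoint recorded as highest concentration tested. GI50: concentration for 50% inhibition of growth.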 Activity calls are given as the source filed them. Rule as the data show it: active = GI50 up to about 1.1 µM and inactive = higher.

What was measured:
Experiment in all cases: inhibition of tumour cell growth, NCI panel, 48 h
HCT-15 = system: HCT-15
HOP-92 = system: HOP-92
HL-60 = system: HL-60
NCI-H522 = system: NCI-H522
SW-620 = system: SW-620
OVCAR-4 = system: OVCAR-4
MDA-MB-231 = system: MDA-MB-231
NCI-H460 = system: NCI-H460
SF-539 = system: SF-539
IGROV-1 = system: IGROV-1
HT-29 = system: HT-29
HCT-116 = system: HCT-116
SR = system: SR
UO-31 = system: UO-31
DU-145 = system: DU-145
COLO 205 = system: COLO 205
A498 = system: A498
HCC 2998 = system: HCC 2998
OVCAR-8 = system: OVCAR-8
MCF7 = system: MCF7

Measured: GI50

CCOC(=O)c1c(N2CCCC2)nsc1Nc1ccc(F)cc1
inactive: HOP-92 28.7 µM | HL-60 20.4 µM | NCI-H522 33.5 µM | SW-620 40.4 µM | OVCAR-4 64.4 µM | MDA-MB-231 39.4 µM | NCI-H460 27 µM | SF-539 64.7 µM | IGROV-1 55 µM | HT-29 23.6 µM | HCT-116 29.7 µM | SR 45.7 µM | UO-31 16 µM | DU-145 45.3 µM | COLO 205 48.5 µM | A498 40 µM | HCC 2998 31.4 µM | OVCAR-8 41.4 µM
29.6 µM: HCT-15

COc1ccc(N[C@H](C[S+]([O-])c2ccc(C)cc2)c2ccc(F)cc2)cc1 (stereo partly specified)
active: IGROV-1 < 0.01 µM
inactive: NCI-H522 13.2 µM | SW-620 > 100 µM | OVCAR-4 94.2 µM | MDA-MB-231 40.5 µM | NCI-H460 91.2 µM | SF-539 22.3 µM | HT-29 > 100 µM | HCT-116 > 100 µM | MCF7 16.6 µM | UO-31 > 100 µM | DU-145 96.6 µM | COLO 205 > 100 µM | HCC 2998 > 100 µM | OVCAR-8 > 100 µM
27.5 µM: HCT-15

O=C(Nc1nc2ccc([N+](=O)[O-])cc2s1)c1cc([N+](=O)[O-])ccc1Cl
inactive: NCI-H522 1.68 µM | SW-620 2.29 µM | OVCAR-4 5.27 µM | MDA-MB-231 2.55 µM | SF-539 2.68 µM | HT-29 2.48 µM | HCT-116 1.71 µM | DU-145 3.75 µM | COLO 205 1.68 µM | A498 2.21 µM | OVCAR-8 2.85 µM
active: HOP-92 0.675 µM
1.93 µM: HCT-15

C=CC[C@@H]1C(=O)[C@@]2(O[Si](C(C)C)(C(C)C)C(C)C)CC[C@@H]1C[C@H]2NC(=O)OCC(Cl)(Cl)Cl
active: NCI-H522 < 0.01 µM
inactive: SW-620 > 100 µM | OVCAR-4 > 100 µM | MDA-MB-231 > 10 µM | NCI-H460 35.5 µM | HT-29 > 100 µM | HCT-116 27.9 µM | SR 35.4 µM | UO-31 56.5 µM | DU-145 > 100 µM | COLO 205 > 100 µM | A498 > 100 µM | HCC 2998 43.2 µM | OVCAR-8 > 100 µM
91.6 µM: HCT-15

Cn1/c(=N\S(=O)(=O)c2ccccc2)n(S(=O)(=O)c2ccccc2)c2ccccc21
> 100 µM: HCT-15
active: HL-60 0.598 µM
inactive: HOP-92 > 10 µM | NCI-H522 50.4 µM | SW-620 93.1 µM | OVCAR-4 > 100 µM | MDA-MB-231 > 100 µM | IGROV-1 > 100 µM | HT-29 35.6 µM | HCT-116 48.9 µM | UO-31 34.7 µM | DU-145 72.8 µM | COLO 205 32.9 µM | A498 78.7 µM | OVCAR-8 56.1 µM

CC1(C)CC(=O)C(=CNC(N)=S)C(=O)C1
> 100 µM: HCT-15
inactive: HOP-92 > 100 µM | HL-60 > 100 µM | NCI-H522 > 100 µM | SW-620 > 100 µM | OVCAR-4 > 100 µM | MDA-MB-231 > 100 µM | NCI-H460 > 100 µM | SF-539 > 100 µM | IGROV-1 > 100 µM | HT-29 > 100 µM | HCT-116 > 100 µM | MCF7 > 100 µM | UO-31 > 100 µM | DU-145 > 100 µM | COLO 205 > 100 µM | HCC 2998 > 100 µM | OVCAR-8 > 100 µM

CSc1ccc(C2C(Cl)C(=O)N2NC(=O)c2c(Cl)c(Cl)c(Cl)c(Cl)c2-c2nc3ccccc3[nH]2)cc1 (stereo unspecified)
inactive: HOP-92 11.5 µM | HL-60 19.1 µM | NCI-H522 1.83 µM | SW-620 25.8 µM | SF-539 20.8 µM | HT-29 33.3 µM | HCT-116 15.8 µM | SR 2.9 µM | MCF7 19.3 µM | UO-31 3.93 µM | DU-145 15.8 µM | COLO 205 20.3 µM | A498 31.8 µM | HCC 2998 20.2 µM | OVCAR-8 18.8 µM
active: IGROV-1 0.402 µM
19.1 µM: HCT-15

[N-]=[N+]=NC1=C(c2ccccc2)C(=O)c2cccc3cccc1c23
inactive: HOP-92 17.7 µM | HL-60 16.6 µM | SW-620 29.9 µM | OVCAR-4 46.7 µM | NCI-H460 5.79 µM | SF-539 16.1 µM | IGROV-1 15 µM | HT-29 6.56 µM | HCT-116 5.48 µM | SR 11.4 µM | MCF7 26.9 µM | UO-31 26.1 µM | DU-145 28.9 µM | COLO 205 > 100 µM | A498 1.52 µM | HCC 2998 11.4 µM
17.8 µM: HCT-15

CCOC(=O)NC(=S)c1ccc(O)c2ccccc12
inactive: HL-60 1.47 µM | NCI-H522 16.9 µM | SW-620 51.6 µM | OVCAR-4 > 100 µM | NCI-H460 38.8 µM | SF-539 53.8 µM | IGROV-1 13.9 µM | HT-29 66.1 µM | HCT-116 84.7 µM | SR 25.5 µM | MCF7 72.1 µM | UO-31 45.6 µM | DU-145 > 100 µM | COLO 205 > 100 µM | A498 > 100 µM | HCC 2998 91 µM | OVCAR-8 34.2 µM
36.6 µM: HCT-15

CC(=O)NC(CCCN(Cc1ccccc1)C(=O)N(CCCl)N=O)C(=O)NCc1ccccc1 (stereo unspecified)
inactive: HOP-92 36 µM | HL-60 8.71 µM | NCI-H522 57.1 µM | SW-620 16.2 µM | OVCAR-4 > 95.3 µM | NCI-H460 3.32 µM | SF-539 2.54 µM | IGROV-1 44.4 µM | HT-29 > 57.5 µM | HCT-116 37.8 µM | SR 3.69 µM | UO-31 43.4 µM | COLO 205 > 64.7 µM | A498 32.7 µM | HCC 2998 64.6 µM | OVCAR-8 > 71.1 µM
> 81.8 µM: HCT-15

COc1cc(Br)cc2c1O[C@H]1C(=O)CC3CC21CCN3C (stereo partly specified)
54.1 µM: HCT-15
inactive: HL-60 16.4 µM | SW-620 30.5 µM | SF-539 > 100 µM | IGROV-1 30.8 µM | HT-29 42.2 µM | HCT-116 42 µM | SR 33.9 µM | MCF7 34.1 µM | UO-31 34.9 µM | COLO 205 43.3 µM | A498 > 100 µM | HCC 2998 34.1 µM | OVCAR-8 19.7 µM

CC(=O)[C@]1(O)Cc2c(O)c3c(c(O)c2[C@@H](OC2CC(N)C(O)C(C)O2)C1)C(=O)c1c(OCc2ccccc2)cccc1C3=O (stereo partly specified)
1.39 µM: HCT-15
active: HL-60 0.132 µM | SW-620 0.544 µM | NCI-H460 0.14 µM | HCT-116 0.605 µM | SR 0.0933 µM
inactive: HOP-92 3.18 µM | NCI-H522 1.48 µM | OVCAR-4 2.43 µM | MDA-MB-231 1.92 µM | SF-539 1.46 µM | IGROV-1 7.98 µM | HT-29 1.51 µM | UO-31 2.28 µM | DU-145 1.63 µM | COLO 205 1.16 µM | A498 5.61 µM | HCC 2998 1.34 µM | OVCAR-8 1.48 µM

COc1ccccc1NC(=O)C(CC(C(=O)Nc1ccccc1OC)/C(C)=N/Nc1ccc([N+](=O)[O-])cc1[N+](=O)[O-])/C(C)=N/Nc1ccc([N+](=O)[O-])cc1[N+](=O)[O-] (stereo unspecified)
> 91.6 µM: HCT-15
inactive: HOP-92 54.3 µM | HL-60 41.5 µM | NCI-H522 > 73.1 µM | SW-620 > 94.8 µM | OVCAR-4 > 81.3 µM | NCI-H460 > 100 µM | SF-539 > 90.2 µM | IGROV-1 54.5 µM | HT-29 > 100 µM | HCT-116 > 59.3 µM | UO-31 27 µM | COLO 205 69 µM | A498 51.1 µM | HCC 2998 > 82 µM | OVCAR-8 > 71 µM
active: SR 0.916 µM

c1ccc2c(c1)ccc1nc(-c3ccc4c(c3)OCO4)c3c(c12)CCC3
83.2 µM: HCT-15
inactive: SW-620 > 100 µM | OVCAR-4 57.1 µM | MDA-MB-231 67.5 µM | NCI-H460 45.3 µM | SF-539 > 100 µM | HT-29 41.1 µM | HCT-116 88.9 µM | MCF7 68.1 µM | UO-31 78 µM | COLO 205 56.9 µM | A498 > 100 µM | HCC 2998 79.4 µM | OVCAR-8 56.4 µM

CC(=O)CCn1c(=S)sc2ccccc21
inactive: HOP-92 > 100 µM | HL-60 17.5 µM | NCI-H522 19.4 µM | SW-620 > 100 µM | OVCAR-4 > 100 µM | MDA-MB-231 > 100 µM | NCI-H460 > 100 µM | SF-539 > 100 µM | IGROV-1 98.6 µM | HT-29 > 100 µM | HCT-116 > 100 µM | MCF7 > 100 µM | UO-31 41.3 µM | DU-145 > 100 µM | COLO 205 > 100 µM | HCC 2998 > 100 µM | OVCAR-8 > 100 µM
> 100 µM: HCT-15

CCN(C(=N)C#N)c1ccccc1
> 45.4 µM: HCT-15
inactive: HOP-92 > 100 µM | HL-60 > 46.9 µM | NCI-H522 > 100 µM | SW-620 20.5 µM | OVCAR-4 > 100 µM | NCI-H460 > 63.8 µM | SF-539 13.6 µM | IGROV-1 > 100 µM | HT-29 > 89.7 µM | HCT-116 > 60.4 µM | SR > 100 µM | UO-31 > 100 µM | COLO 205 > 95.3 µM | A498 > 100 µM | HCC 2998 > 100 µM | OVCAR-8 > 100 µM

CC(Oc1ccc(Oc2cnc3ccc(Cl)cc3n2)cc1)C(=O)O (stereo unspecified)
> 74.1 µM: HCT-15
inactive: NCI-H522 29.5 µM | SW-620 > 91.6 µM | OVCAR-4 > 92.5 µM | MDA-MB-231 > 89.5 µM | NCI-H460 19.1 µM | SF-539 > 65.2 µM | IGROV-1 > 64.1 µM | HT-29 > 95.3 µM | HCT-116 58.7 µM | SR 30.1 µM | MCF7 26.6 µM | UO-31 72.1 µM | COLO 205 55.7 µM | A498 > 62.1 µM | HCC 2998 > 87.9 µM | OVCAR-8 > 80.5 µM
